Tests used:
M. tuberculosis H37Rv = experiment: microbe, parasite or virus in culture; assay type: cell-based, Mycobacterium tuberculosis; conditions: for MIC (H37Rv): Table 5; for H37Rv MIC: Tables 1-4 and text
[1] = system: M. tuberculosis H37Rv Rv1258c knockout (KO); experiment: microbe, parasite or virus in culture; assay type: cell-based; conditions: Tables 1-4 and text; 7 days, 7H9 broth
[2] = biological target: Purified 70S M. smegmatis bacterial ribosomes (Mycolicibacterium smegmatis, UniProt A0QSG6); experiment: Ribosomal translation inhibition; assay type: biochemical; conditions: inhibits luciferase activity by 50%
Chain of Purified 70S M. smegmatis bacterial ribosomes (A0QSG6 whole entry): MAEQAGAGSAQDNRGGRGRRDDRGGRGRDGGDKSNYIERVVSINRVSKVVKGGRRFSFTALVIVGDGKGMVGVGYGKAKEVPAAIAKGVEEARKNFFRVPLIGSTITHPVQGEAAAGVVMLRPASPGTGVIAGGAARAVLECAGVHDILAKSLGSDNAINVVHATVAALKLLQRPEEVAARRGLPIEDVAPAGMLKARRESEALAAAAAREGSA

M. bovis BCG = assay type: cell-based; conditions: average of 2–3 replicates, standard deviation in parenthesis
[3] = Microsomal stability, human; assay type: in vitro ADME; conditions: human liver microsomes
[4] = Microsomal stability, mouse; assay type: in vitro ADME; conditions: mouse liver microsomes
Protein binding, human = assay type: in vitro ADME
Protein binding, mouse = assay type: in vitro ADME
HepG2 cells = experiment: Mammalian cytotoxicity; assay type: cell-based
M. tuberculosis Erdman = experiment: Mouse model of acute tuberculosis infection; assay type: in vivo; conditions: 9 days, vs control
[5] = Maximum tolerated dose / tolerability; assay type: in vivo, mouse; conditions: mice; for Maximum tolerated dose (MTD): subcutaneous
Rv1258c efflux pump = conditions: for Efflux Ratio: H37Rv MIC / Rv1258c KO MIC
[6] = heteroaryl ring of side chain; ref not given; cited from earlier work
[7] = second new trial (Figure 3C), 200 mg/kg BID, subcutaneous
[8] = first new trial (Figure 3B), 200 mg/kg BID, subcutaneous

In the case of `Br.Br.Br.CN[C@@H]1[C@H](O)[C@H](NC)[C@H]2O[C@]3(O)[C@H](O[C@@H]2[C@H]1O)O[C@H](C)C[C@H]3NC(=O)Cc1cc(Cl)c(F)cn1` [Compound 49, 3′-Dihydro-3′-deoxy-3′(R)-(4-chloro-5-fluoropyridin-2-yl)acetylamino spectinomycin trihydrobromide], the “MIC (H37Rv)” value (M. tuberculosis H37Rv) is reported as 0.8 µg/mL, the “H37Rv MIC” value (M. tuberculosis H37Rv) is reported as 0.8 µg/mL and the “Rv1258c KO MIC” value [1] is reported as 0.8 µg/mL. The “Ribosome IC50” value [2] was 0.22 µg/mL, the “Post Antibiotic Effect” value (M. bovis BCG) was 116 (19) h and the “Microsomal stability t1/2 human” value [3] was over 50 h. For the same compound, the “Microsomal stability t1/2 mouse” value [4] was over 50 h, the Protein binding human (Protein binding, human) was 56.3% and the Protein binding mouse (Protein binding, mouse) was 39.3%. The “Cytotoxicity (HepG2)” value (HepG2 cells) was over 400 µg/mL.

With `CN[C@@H]1[C@H](O)[C@H](NC)[C@H]2O[C@]3(O)[C@H](O[C@@H]2[C@H]1O)O[C@H](C)C[C@H]3NC(=O)Cc1ccc(O)cn1.Cl.Cl.Cl` [Compound 39, 3′-Dihydro-3′-deoxy-3′(R)-(5-hydroxypyridin-2-yl)acetylamino spectinomycin trihydrochloride] the “MIC (H37Rv)” value (M. tuberculosis H37Rv) was 1.6 µg/mL, the “H37Rv MIC” value (M. tuberculosis H37Rv) was 1.6 µg/mL and the “Rv1258c KO MIC” value [1] was 3.1 µg/mL. The “Ribosome IC50” value [2] was 0.84 µg/mL, the “Post Antibiotic Effect” value (M. bovis BCG) was 20 (18) h and the “Microsomal stability t1/2 human” value [3] was 7.4 h. For the same compound, the “Microsomal stability t1/2 mouse” value [4] was 13.4 h, the Protein binding human (Protein binding, human) was 35.1% and the Protein binding mouse (Protein binding, mouse) was 30.7%. The “Cytotoxicity (HepG2)” value (HepG2 cells) was over 400 µg/mL, the “Reduction of bacterial load in lungs” value (M. tuberculosis Erdman; [7]) was 1.5 log and the “Maximum tolerated dose (MTD)” value [5] was over 400 mg/kg. The “Efflux Ratio” value (Rv1258c efflux pump) was 0.5.

In the case of `CN[C@@H]1[C@H](O)[C@H](NC)[C@H]2O[C@]3(O)[C@H](O[C@@H]2[C@H]1O)O[C@H](C)C[C@H]3NC(=O)Cc1ccc(OC(F)(F)F)cn1.Cl.Cl.Cl` [Compound 41, 3′-Dihydro-3′-deoxy-3′(R)-(5-(trifluoromethoxy)pyridin-2-yl)acetylamino spectinomycin trihydrochloride], the “MIC (H37Rv)” value (M. tuberculosis H37Rv) is reported as 3.1 µg/mL, the “H37Rv MIC” value (M. tuberculosis H37Rv) is reported as 3.1 µg/mL and the “Rv1258c KO MIC” value [1] is reported as 0.8 µg/mL. The “Ribosome IC50” value [2] was 0.96 µg/mL, the “Post Antibiotic Effect” value (M. bovis BCG) was 61 (17) h and the “Microsomal stability t1/2 human” value [3] was 22.4 h. The “Microsomal stability t1/2 mouse” value [4] was 27.0 h, the Protein binding human (Protein binding, human) was 51.4% and the Protein binding mouse (Protein binding, mouse) was 58.4%. For the same compound, the “Cytotoxicity (HepG2)” value (HepG2 cells) was over 400 µg/mL, the “Reduction of bacterial load in lungs” value (M. tuberculosis Erdman; second new trial (Figure 3C), 100 mg/kg) was 1.1 log and the Well tolerated dosing ([5]; efficacy trial dosing (Table S3)) was 100 mg/kg. For the same compound, the “Efflux Ratio” value (Rv1258c efflux pump) was 4.

For `Br.Br.Br.CN[C@@H]1[C@H](O)[C@H](NC)[C@H]2O[C@]3(O)[C@H](O[C@@H]2[C@H]1O)O[C@H](C)C[C@H]3NC(=O)Cc1nc2ccccc2[nH]1` [Compound 27, 3′-Dihydro-3′-deoxy-3′(R)-(1H-benzo[d]imidazol-2-yl)acetylamino spectinomycin trihydrobroride], the “MIC (H37Rv)” value (M. tuberculosis H37Rv) was 1.6 µg/mL, the “H37Rv MIC” value (M. tuberculosis H37Rv) was 1.6 µg/mL and the “Rv1258c KO MIC” value [1] was 1.6 µg/mL. For the same compound, the “Ribosome IC50” value [2] was 0.26 µg/mL, the “Post Antibiotic Effect” value (M. bovis BCG) was 137 h and the “Microsomal stability t1/2 human” value [3] was over 50 h. The “Microsomal stability t1/2 mouse” value [4] was over 50 h, the Protein binding human (Protein binding, human) was 26.3% and the Protein binding mouse (Protein binding, mouse) was 12.1%. For the same compound, the “Cytotoxicity (HepG2)” value (HepG2 cells) was over 400 µg/mL, the “Reduction of bacterial load in lungs” value (M. tuberculosis Erdman; [8]) was 1.6 logs and the “Efflux Ratio” value (Rv1258c efflux pump) was 1. The pKa [6] was 5.6.

In the case of `Br.Br.Br.CNC1C(O)C(NC)C2OC3(O)C(NC(=O)CCc4ccccn4)CC(C)OC3OC2C1O` [Compound 12, 3′-Dihydro-3′-deoxy-3′(R)-(pyridin-2-yl)propanoylamino spectinomycin trihydrobromide], the “H37Rv MIC” value (M. tuberculosis H37Rv) is reported as 50 µg/mL, the “Rv1258c KO MIC” value [1] is reported as 6.3 µg/mL and the “Ribosome IC50” value [2] is reported as 3.80 µg/mL. The “Fold change of MIC between H37Rv and Rv1258c KO (efflux)” value (Rv1258c efflux pump) was 8 fold and the “Efflux Ratio” value (Rv1258c efflux pump) was 8.

For `CN[C@@H]1[C@H](O)[C@H](NC)[C@H]2O[C@]3(O)[C@H](O[C@@H]2[C@H]1O)O[C@H](C)C[C@H]3NC(=O)Cc1ncc[nH]1.Cl.Cl.Cl` [Compound 21, 3′-Dihydro-3′-deoxy-3′(R)-(1H-imidazol-2-yl)acetylamino spectinomycin trihydrochloride], the “H37Rv MIC” value (M. tuberculosis H37Rv) was 12.5 µg/mL, the “Rv1258c KO MIC” value [1] was 6.3 µg/mL and the “Ribosome IC50” value [2] was 0.56 µg/mL. For the same compound, the “Efflux Ratio” value (Rv1258c efflux pump) was 2 and the pKa [6] was 7.0.

In the case of `Br.Br.Br.CNC1C(O)C(NC)C2OC3(O)C(NC(=O)Cc4c[nH]cn4)CC(C)OC3OC2C1O` [Compound 20, 3′-Dihydro-3′-deoxy-3′(R)-(1H-imidazol-4-yl)acetylamino spectinomycin trihydrobromide], the “H37Rv MIC” value (M. tuberculosis H37Rv) is reported as 25 µg/mL, the “Rv1258c KO MIC” value [1] is reported as 12.5 µg/mL and the “Ribosome IC50” value [2] is reported as 1.10 µg/mL. The “Efflux Ratio” value (Rv1258c efflux pump) was 2.

For `Br.Br.Br.CNC1C(O)C(NC)C2OC3(O)C(NC(=O)Cc4nc5ccccc5s4)CC(C)OC3OC2C1O` [Compound 25, 3′-Dihydro-3′-deoxy-3′(R)-(benzo[d]thiazol-2-yl)acetylamino spectinomycin trihydrobroride], the “H37Rv MIC” value (M. tuberculosis H37Rv) was 1.6 µg/mL, the “Rv1258c KO MIC” value [1] was 0.8 µg/mL and the “Ribosome IC50” value [2] was 1.09 µg/mL. The “Maximum tolerated dose (MTD)” value [5] was “mild toxicity noted when dosage exceeded 100 mg/kg” and the “Efflux Ratio” value (Rv1258c efflux pump) was 2.

In the case of `Br.Br.Br.CNC1C(O)C(NC)C2OC3(O)C(OC(C)C[C@H]3NC(=O)Cn3ccnc3)OC2C1O` (stereo partly drawn) [Compound 23, 3′-Dihydro-3′-deoxy-3′(R)-(1H-imidazol-1-yl)acetylamino spectinomycin trihydrobromide], the “H37Rv MIC” value (M. tuberculosis H37Rv) is reported as 100 µg/mL, the “Rv1258c KO MIC” value [1] is reported as 12.5 µg/mL and the “Ribosome IC50” value [2] is reported as 1.51 µg/mL. The “Fold change of MIC between H37Rv and Rv1258c KO (efflux)” value (Rv1258c efflux pump) was 8 fold and the “Efflux Ratio” value (Rv1258c efflux pump) was 8.

In the case of `Br.Br.Br.CN[C@@H]1[C@H](O)[C@H](NC)[C@H]2O[C@]3(O)[C@H](O[C@@H]2[C@H]1O)O[C@H](C)C[C@H]3NC(=O)Cc1nccc(Cl)c1C` [Compound 46, 3′-Dihydro-3′-deoxy-3′(R)-(4-chloro-3-methylpyridin-2-yl)acetylamino spectinomycin trihydrobromide], the “MIC (H37Rv)” value (M. tuberculosis H37Rv) is reported as 3.1 µg/mL, the “H37Rv MIC” value (M. tuberculosis H37Rv) is reported as 3.1 µg/mL and the “Rv1258c KO MIC” value [1] is reported as 1.6 µg/mL. The “Ribosome IC50” value [2] was 0.59 µg/mL, the “Microsomal stability t1/2 human” value [3] was over 50 h and the “Microsomal stability t1/2 mouse” value [4] was over 50 h. The Protein binding human (Protein binding, human) was 46.6%, the Protein binding mouse (Protein binding, mouse) was 36.4% and the “Cytotoxicity (HepG2)” value (HepG2 cells) was over 400 µg/mL. For the same compound, the “Reduction of bacterial load in lungs” value (M. tuberculosis Erdman; [8]) was “least reduction in bacterial loads” and the “Efflux Ratio” value (Rv1258c efflux pump) was 2.

With `Br.Br.Br.CNC1C(O)C(NC)C2OC3(O)C(NC(=O)Cc4ncccc4C)CC(C)OC3OC2C1O` [Compound 29, 3′-Dihydro-3′-deoxy-3′(R)-(3-methylpyridin-2-yl)acetylamino spectinomycin trihydrobromide] the “H37Rv MIC” value (M. tuberculosis H37Rv) was 25 µg/mL, the “Rv1258c KO MIC” value [1] was 6.3 µg/mL and the “Ribosome IC50” value [2] was 1.00 µg/mL. The “Efflux Ratio” value (Rv1258c efflux pump) was 4.

With `Br.Br.Br.CNC1C(O)C(NC)C2OC3(O)C(NC(=O)Cc4ccc(Br)cn4)CC(C)OC3OC2C1O` [Compound 43, 3′-Dihydro-3′-deoxy-3′(R)-(5-bromopyridin-2-yl)acetylamino spectinomycin trihydrobromide] the “H37Rv MIC” value (M. tuberculosis H37Rv) was 3.1 µg/mL, the “Rv1258c KO MIC” value [1] was 1.6 µg/mL and the “Ribosome IC50” value [2] was 0.42 µg/mL. The “Efflux Ratio” value (Rv1258c efflux pump) was 2.

With `Br.Br.Br.CNC1C(O)C(NC)C2OC3(O)C(NC(=O)Cc4nc5ccccc5o4)CC(C)OC3OC2C1O` [Compound 24, 3′-Dihydro-3′-deoxy-3′(R)-(benzo[d]oxazol-2-yl)acetylamino spectinomycin trihydrobroride] the “H37Rv MIC” value (M. tuberculosis H37Rv) was 6.3 µg/mL, the “Rv1258c KO MIC” value [1] was 3.1 µg/mL and the “Ribosome IC50” value [2] was 0.61 µg/mL. For the same compound, the “Efflux Ratio” value (Rv1258c efflux pump) was 2.

With `Br.Br.Br.CN[C@@H]1[C@H](O)[C@H](NC)[C@H]2O[C@]3(O)[C@H](O[C@@H]2[C@H]1O)O[C@H](C)C[C@H]3NC(=O)Cc1ccc(OC)cn1` [Compound 38, 3′-Dihydro-3′-deoxy-3′(R)-(5-methoxypyridin-2-yl)acetylamino spectinomycin trihydrobromide] the “MIC (H37Rv)” value (M. tuberculosis H37Rv) was 3.1 µg/mL, the “H37Rv MIC” value (M. tuberculosis H37Rv) was 3.1 µg/mL and the “Rv1258c KO MIC” value [1] was 6.3 µg/mL. For the same compound, the “Ribosome IC50” value [2] was 0.39 µg/mL, the “Post Antibiotic Effect” value (M. bovis BCG) was 56 (12) h and the “Microsomal stability t1/2 human” value [3] was 3.4 h. The “Microsomal stability t1/2 mouse” value [4] was 4.8 h, the Protein binding human (Protein binding, human) was 51.4% and the Protein binding mouse (Protein binding, mouse) was 57.3%. For the same compound, the “Cytotoxicity (HepG2)” value (HepG2 cells) was over 400 µg/mL, the “Reduction of bacterial load in lungs” value (M. tuberculosis Erdman; [7]) was 1.6 log and the “Efflux Ratio” value (Rv1258c efflux pump) was 0.5.

In the case of `Br.Br.Br.CNC1C(O)C(NC)C2OC3(O)C(NC(=O)Cc4cc(C)ccn4)CC(C)OC3OC2C1O` [Compound 30, 3′-Dihydro-3′-deoxy-3′(R)-(4-methylpyridin-2-yl)acetylamino spectinomycin trihydrobromide], the “H37Rv MIC” value (M. tuberculosis H37Rv) is reported as 3.1 µg/mL, the “Rv1258c KO MIC” value [1] is reported as 6.3 µg/mL and the “Ribosome IC50” value [2] is reported as 0.47 µg/mL. The “Efflux Ratio” value (Rv1258c efflux pump) was 0.5.

— paper PMC5493200 (ACS infectious diseases, 2016)
